molecular target: SARS2 coronavirus 3CL protease (Severe acute respiratory syndrome coronavirus 2, UniProt P0DTD1); test: biochemical; settings: 5 nM enzyme, 30 min pre-incubation with compound, 15 μM peptide substrate, 4 h at room temperature; read-out: FRET Potency (nM); IC50 values in the SARS2 3CLPro FRET assay

**Q.** With `CNC(=O)C(=O)[C@H](C[C@@H]1C[C@@H](C)NC1=O)NC(=O)c1cc(Cl)ccc1NC(=O)[C@@H]1CN(C)C(=O)O1` [Example 182, (5S)-N-[4-chloro-2-[[(1S)-3-(methylamino)-1-[[(3S,5R)-5-methyl-2-oxo-pyrrolidin-3-yl]methyl]-2,3-dioxo-propyl]carbamoyl]phenyl]-3-methyl-2-oxo-oxazolidine-5-carboxamide] as the molecule, how does the IC50 read?
**A.** The IC50 was 6.7 nM.

**Q.** For `CNC(=O)C(=O)[C@H](C[C@@H]1C[C@@H](C)NC1=O)NC(=O)c1cc(Cl)ccc1NC(=O)OC1CC1(F)F` (stereo partly drawn) [Example 172, (2,2-difluorocyclopropyl) N-[4-chloro-2-[(1S)-3-(methylamino)-1-[[(3S,5R)-5-methyl-2-oxo-pyrrolidin-3-yl]methyl]-2,3-dioxo-propyl]carbamoyl]phenyl] carbamate], which IC50 is on record?
**A.** The IC50 was 3.7 nM.

**Q.** How did the IC50 turn out when `C[C@@H]1C[C@@H](C[C@H](NC(=O)c2cc(Cl)ccc2NC(=O)C2CC23CC3)C(=O)C(=O)NC2CC2)C(=O)N1` (stereo partly drawn) [Example 82, N-[4-chloro-2-[[(1S)-3-(cyclopropylamino)-1-[[(3S,5R)-5-methyl-2-oxo-pyrrolidin-3-yl]methyl]-2,3-dioxo-propyl]carbamoyl]phenyl] spiro[2.2]pentane-2-carboxamide] was run?
**A.** The IC50 was 10.8 nM.

**Q.** Which IC50 does the source give for `O=C(NC1CC1)C(=O)[C@H](C[C@@H]1CCNC1=O)NC(=O)c1cc(Cl)ccc1NC(=O)c1ccnc(C(F)(F)F)c1` [Example 75, N-[4-chloro-2-[[(1S)-3-(cyclopropylamino)-2,3-dioxo-1-[[(3S)-2-oxopyrrolidin-3-yl]methyl]propyl]carbamoyl]phenyl]-2-(trifluoromethyl)pyridine-4-carboxamide] here?
**A.** The IC50 was 6 nM.

**Q.** How did the IC50 turn out when `O=C(Nc1ccc(Cl)cc1C(=O)N[C@@H](C[C@@H]1CCNC1=O)C(=O)C(=O)NC1CC1)OC1CC1` [Example 146, cyclopropyl N-[4-chloro-2-[[(1S)-3-(cyclopropylamino)-2,3-dioxo-1-[[(3S)-2-oxopyrrolidin-3-yl]methyl]propyl]carbamoyl]phenyl]carbamate] was run?
**A.** The IC50 was 3.9 nM.

**Q.** `C[C@@H]1C[C@@H](C[C@H](NC(=O)c2cc(Cl)c(F)cc2NC(=O)CCC(F)(F)F)C(=O)C(=O)NC2CC2)C(=O)N1` [Example 53, 5-chloro-N-[(1S)-3-(cyclopropylamino)-1-[[(3S,5R)-5-methyl-2-oxo-pyrrolidin-3-yl]methyl]-2,3-dioxo-propyl]-4-fluoro-2-(4,4,4-trifluorobutanoylamino) benzamide] was tested. Which IC50 did it give?
**A.** The IC50 was 8.3 nM.

**Q.** How did the IC50 turn out when `C[C@@H]1C[C@@H](C[C@H](NC(=O)c2cc(Cl)ccc2NC(=O)C(F)(F)F)C(=O)C(=O)NC2CC2)C(=O)N1` [Example 177, 5-chloro-N-[(1S)-3-(cyclopropylamino)-1-[[(3S,5R)-5-methyl-2-oxo-pyrrolidin-3-yl]methyl]-2,3-dioxo-propyl]-2-[(2,2,2-trifluoroacetyl)amino] benzamide] was run?
**A.** Its IC50 is 10.9 nM.

**Q.** `C[C@@H]1C[C@@H](C[C@H](NC(=O)c2cc(C#N)ccc2NC(=O)c2cccc(C(F)(F)F)c2)C(=O)C(=O)NC2CC2)C(=O)N1` [Example 61, 5-cyano-N-[(1S)-3-(cyclopropylamino)-1-[[(3S,5R)-5-methyl-2-oxo-pyrrolidin-3-yl]methyl]-2,3-dioxo-propyl]-2-[[3-(trifluoromethyl)benzoyl]amino]benzamide] was tested. Which IC50 did it give?
**A.** The IC50 was 7.7 nM.

**Q.** How did the IC50 turn out when `C[C@@H]1C[C@@H](C[C@H](NC(=O)c2cc(Cl)cnc2NC(=O)CCC(F)(F)F)C(=O)C(=O)NC2CC2)C(=O)N1` [Example 52, 5-chloro-N-[(1S)-3-(cyclopropylamino)-1-[[(3S,5R)-5-methyl-2-oxo-pyrrolidin-3-yl]methyl]-2,3-dioxo-propyl]-2-(4,4,4-trifluorobutanoylamino) pyridine-3-carboxamide] was run?
**A.** Its IC50 is 8.4 nM.

**Q.** For `CNC(=O)C(=O)[C@H](C[C@@H]1CCNC1=O)NC(=O)c1cc(Cl)ccc1NC(=O)OC1CC(F)(F)C1` [Example 173], which IC50 is on record?
**A.** Its IC50 is 6.7 nM.

**Q.** For `C[C@@H]1C[C@@H](C[C@H](NC(=O)c2cc(Cl)ccc2NC(=O)c2ccnc(C(F)(F)F)c2)C(=O)C(N)=O)C(=O)N1` [Example 208, N-[2-[[(1S)-3-amino-1-[[(3S,5R)-5-methyl-2-oxo-pyrrolidin-3-yl]methyl]-2,3-dioxo-propyl]carbamoyl]-4-chloro-phenyl]-2-(trifluoromethyl)pyridine-4-carboxamide], which IC50 is on record?
**A.** Its IC50 is 6.9 nM.

**Q.** `CNC(=O)C(=O)[C@H](C[C@@H]1C[C@@H](C)NC1=O)NC(=O)c1cc(Cl)ccc1NC(=O)OC1CC1(F)F` (stereo partly drawn) [Example 171, (2,2-difluorocyclopropyl) N-[4-chloro-2-[(1S)-3-(methylamino)-1-[[(3S,5R)-5-methyl-2-oxo-pyrrolidin-3-yl]methyl]-2,3-dioxo-propyl]carbamoyl]phenyl] carbamate] was tested. Which IC50 did it give?
**A.** The IC50 was 3.2 nM.

**Q.** `CNC(=O)C(=O)[C@H](C[C@@H]1C[C@@H](C)NC1=O)NC(=O)c1cc(Cl)cc(Cl)c1NC(=O)c1ccnc(C(F)(F)F)c1` [Example 231, N-[2,4-dichloro-6-[[(1S)-3-(methylamino)-1-[[(3S,5R)-5-methyl-2-oxo-pyrrolidin-3-yl]methyl]-2,3-dioxo-propyl]carbamoyl]phenyl]-2-(trifluoromethyl)pyridine-4-carboxamide] was tested. Which IC50 did it give?
**A.** Its IC50 is 5.6 nM.

**Q.** For `O=C(NC1CC1)C(=O)[C@H](C[C@@H]1CCNC1=O)NC(=O)c1cc(Cl)ccc1NC(=O)C1(CC(F)(F)F)CC1` [Example 36, 5-chloro-N-[(1S)-3-(cyclopropylamino)-2,3-dioxo-1-[[(3S)-2-oxopyrrolidin-3-yl]methyl]propyl]-2-[[1-(2,2,2-trifluoroethyl)cyclopropane-carbonyl]amino]benzamide], which IC50 is on record?
**A.** Its IC50 is 10.7 nM.

**Q.** `O=C(Nc1ccc(Cl)cc1C(=O)N[C@@H](C[C@@H]1CCNC1=O)C(=O)C(=O)NC1CC1)OC1CCC1` [Example 161, cyclobutyl N-[4-chloro-2-[[(1S)-3-(cyclopropylamino)-2,3-dioxo-1-[[(3S)-2-oxopyrrolidin-3-yl]methyl]propyl]carbamoyl]phenyl]carbamate] was tested. Which IC50 did it give?
**A.** The IC50 was 5.9 nM.

**Q.** With `CNC(=O)C(=O)[C@H](C[C@@H]1C[C@@H](C)NC1=O)NC(=O)c1cc(Cl)ccc1NC(=O)OC1CCC1` [Example 151, cyclobutyl N-[4-chloro-2-[[(1S)-3-(methylamino)-1-[[(3S,5R)-5-methyl-2-oxo-pyrrolidin-3-yl]methyl]-2,3-dioxo-propyl]carbamoyl]phenyl] carbamate] as the molecule, how does the IC50 read?
**A.** The IC50 was 5.1 nM.

**Q.** `CNC(=O)C(=O)[C@H](C[C@@H]1C[C@@H](C)NC1=O)NC(=O)c1cc(Cl)ccc1NC(=O)C1CCC(F)(F)CC1` [Example 197] was tested. Which IC50 did it give?
**A.** Its IC50 is 9.4 nM.

**Q.** Which IC50 does the source give for `CCOC(=O)Nc1ccc(Cl)cc1C(=O)N[C@@H](C[C@@H]1CCNC1=O)C(=O)C(=O)NC1CC1` [Example 139] here?
**A.** Its IC50 is 6.3 nM.

**Q.** How did the IC50 turn out when `CNC(=O)C(=O)[C@H](C[C@@H]1C[C@@H](C)NC1=O)NC(=O)c1cc(C#N)cnc1NC(=O)c1cc(C(F)(F)F)cc(C(F)(F)F)c1` [Example 4, 2-(3,5-bis(trifluoromethyl)benzamido)-5-cyano-N—((S)-1-((3S,5R)-5-methyl-2-oxopyrrolidin-3-yl)-4-(methylamino)-3,4-dioxobutan-2-yl)nicotinamide] was run?
**A.** Its IC50 is 11.5 nM.

**Q.** For `CNC(=O)C(=O)[C@H](C[C@@H]1CCNC1=O)NC(=O)c1cc(Cl)ccc1NC(=O)C1CC1C(F)(F)F` (stereo partly drawn) [Example 176, 5-chloro-N-[(1S)-3-(methylamino)-2,3-dioxo-1-[[(3S)-2-oxopyrrolidin-3-yl]methyl]propyl]-2-[[2-(trifluoromethyl)cyclopropane-carbonyl]amino]benzamide], which IC50 is on record?
**A.** Its IC50 is 2.5 nM.

Reference: patent US20240228535A1 (priority 2022, published 2024)
